Laboratory results from patent publication US20170253607A1, “LONG-ACTING HIV PROTEASE INHIBITOR” (Shionogi & Co., Ltd., priority 2014, published 2017).

molecular target: HIV-1 PR (Human immunodeficiency virus type 1 group M subtype B, UniProt P04585); experiment: HIV-protease inhibitory activity assay (FRET peptide substrate); format: biochemical; settings: Test Example 1
Description: Test Example 1: HIV-Protease Inhibitory Activity Assay
The HIV-1 PR assay was performed by using a FRET (Fluorescence Resonance Energy Transfer) peptide substrate (AnaSpec, Inc., Fremont, Calif.). Initially in the intact FRET peptide, the fluorescence of HiLyte Fluor 488 is quenched by QXL 520. Upon substrate cleavage by PR, the fluorescence is recovered and can be monitored. Test compounds diluted in DMSO was plated to the wells of 384-well plate. Then, mixed with assay buffer (0.1 mol/L NaAc containing 0.5 mol/L NaCl, 1 mmol/L EDTA, 1 mmol/L DTT, and 0.05% Tween 20, pH 4.8) in the presence or absence of HIV-1 PR (0.83 ng), and let it stand for 5 minutes at room temperature. Background fluorescence intensity was measured and let it stand for another 15 minutes at room temperature. The enzyme reaction was started by adding substrate diluted in assay buffer at final concentration of 2 μmol/L, and let it stand for 60 minutes at room temperature. After 60 minutes, the fluorescence intensity was measured. Fluorescence intensity was measured with excitation and emission wavelengths of 485 nm and 535 nm, respectively.
IC50 values were determined using non-linear regression four-parameter logistic equation, y=A+((B−A)/(1+((C/x)̂D))) where A=minimum inhibition, B=maximum inhibition, C=log IC50, D=slope factor, x=concentration of compound and y=% inhibition.

Compared with `COc1ccc(S(=O)(=O)N(CC(C)C)CC(O)C(Cc2ccc(OCc3ccccc3-c3ccc4c(c3)C(=O)C(c3ccc(F)cc3)C4=O)cc2)NC(=O)OC2COC3(C)OCCC23)cc1` (stereo not shown) [Compound I-70], `COc1ccc(S(=O)(=O)N(CC(C)C)CC(O)C(Cc2ccc(OCc3ccccc3-c3ccc4c(c3)C(=O)C(c3ccc(C(F)(F)F)cc3)C4=O)cc2)NC(=O)OC2COC3(C)OCCC23)cc1` (stereo not shown) [Compound I-71] is 1.7-fold higher in IC50: 1.06 nM for the first, 1.77 nM for the second. The first is the more potent here.

`COc1ccc(S(=O)(=O)N(CC(C)C)CC(O)C(Cc2ccc(OCc3ccccc3-c3ccc4c(c3)C(=O)C(C3CCCCC3)C4=O)cc2)NC(=O)OC2COC3(C)OCCC23)cc1` (stereo not shown) [Compound I-72] and `COc1ccc(S(=O)(=O)N(CC(C)C)CC(O)C(Cc2ccc(OCc3ccccc3-c3oc4c(c3C(=O)O)CCCC4)cc2)NC(=O)OC2COC3(C)OCCC23)cc1` (stereo not shown) [Compound I-130] are within 1.5-fold of each other in IC50: 1.45 nM for the first, 1.12 nM for the second.

Compared with `COc1ccc(S(=O)(=O)N(CC(C)C)CC(O)C(Cc2ccc(OCc3ccccc3-c3ccc4c(C(=O)O)c(-c5ccc(Cl)cc5C)sc4c3)cc2)NC(=O)OC2COC3(C)OCCC23)cc1` (stereo not shown) [Compound I-73], `COc1ccc(S(=O)(=O)N(CC(C)C)CC(O)C(Cc2ccc(OCc3ccccc3-c3sccc3C(=O)O)cc2)NC(=O)OC2COC3(C)OCCC23)cc1` (stereo not shown) [Compound I-97] is 5.8-fold lower in IC50: 4.73 nM for the first, 0.82 nM for the second. The second is the more potent here.

`COc1ccc(S(=O)(=O)N(CC(C)C)CC(O)C(Cc2ccc(OCc3ccccc3-c3ccc4c(O)c(-c5ccc(F)cc5)c(=O)n(-c5ccccc5)c4c3)cc2)NC(=O)OC2COC3(C)OCCC23)cc1` (stereo not shown) [Compound I-75] and `COc1ccc(S(=O)(=O)N(CC(C)C)CC(O)C(Cc2ccc(OCc3ccccc3-n3nc4c(c3C(=O)O)Cc3ccccc3-4)cc2)NC(=O)OC2COC3(C)OCCC23)cc1` (stereo not shown) [Compound I-143] are within 1.5-fold of each other in IC50: 1.19 nM for the first, 0.99 nM for the second.

Going from `CCCCC1(Cc2ccc(COc3ccc(CC(NC(=O)OC4COC5(C)OCCC45)C(O)CN(CC(C)C)S(=O)(=O)c4ccc(OC)cc4)cc3)cc2)C(=O)N(c2ccccc2)N(c2ccccc2)C1=O` (stereo not shown) [Compound I-76] to `COc1ccc(S(=O)(=O)N(CC(C)C)CC(O)C(Cc2ccc(OCc3ccccc3-n3nc4c(c3C(=O)O)CC(c3ccccc3)CC4)cc2)NC(=O)OC2COC3(C)OCCC23)cc1` (stereo not shown) [Compound I-144], the IC50 falls from 1.35 nM to 0.8 nM (1.7-fold).

`COc1ccc(S(=O)(=O)N(CC(C)C)CC(O)C(Cc2ccc(OCc3ccc(C#N)cc3-c3sc4c(c3C(=O)O)CC(C)(C)CC4)cc2)NC(=O)OC2COC3(C)OCCC23)cc1` (stereo not shown) [Compound I-80] and `COc1ccc(S(=O)(=O)N(CC(C)C)CC(O)C(Cc2ccc(OCc3cccc(-c4sc5c(c4C(=O)O)CC(C)(C)CC5)c3C)cc2)NC(=O)OC2COC3(C)OCCC23)cc1` (stereo not shown) [Compound I-92] are within 1.5-fold of each other in IC50: 1.75 nM for the first, 1.88 nM for the second.

`COc1ccc(S(=O)(=O)N(CC(C)C)CC(O)C(Cc2ccc(OCc3csc(-c4sc5c(c4C(=O)O)CC(C)(C)CC5)n3)cc2)NC(=O)OC2COC3(C)OCCC23)cc1` (stereo not shown) [Compound I-87] and `COc1ccc(S(=O)(=O)N(CC(C)C)CC(O)C(Cc2ccc(OCc3ncsc3-c3sc4c(c3C(=O)O)CC(C)(C)CC4)cc2)NC(=O)OC2COC3(C)OCCC23)cc1` (stereo not shown) [Compound I-89] are within 1.5-fold of each other in IC50: 1.32 nM for the first, 1.11 nM for the second.

First: COc1ccc(S(=O)(=O)N(CC(C)C)CC(O)C(Cc2ccc(OCc3cccnc3-c3sc4c(c3C(=O)O)CC(C)(C)CC4)cc2)NC(=O)OC2COC3(C)OCCC23)cc1 (stereo not shown) [Compound I-90]
Second: COc1ccc(S(=O)(=O)N(CC(C)C)CC(O)C(Cc2ccc(NCc3cccnc3-c3sc4c(c3C(=O)O)CC(C)(C)CC4)cc2)NC(=O)OC2COC3(C)OCCC23)cc1 (stereo not shown) [Compound I-128]
The IC50 of the first is 1.7-fold lower: 1.32 nM for the first, 2.19 nM for the second.

`COc1ccc(S(=O)(=O)N(CC(C)C)CC(O)C(Cc2ccc(OCc3ccc(-c4sc5c(c4C(=O)O)CC(C)(C)CC5)c(C)c3)cc2)NC(=O)OC2COC3(C)OCCC23)cc1` (stereo not shown) [Compound I-91] and `COc1ccc(S(=O)(=O)N(CC(C)C)CC(O)C(Cc2ccc(Oc3ccc(-c4sc5c(c4C(=O)O)CC(C)(C)CC5)c(OC)c3)cc2)NC(=O)OC2COC3(C)OCCC23)cc1` (stereo not shown) [Compound I-136] are within 1.5-fold of each other in IC50: 1.35 nM for the first, 1.4 nM for the second.

First: COc1ccc(S(=O)(=O)N(CC(C)C)CC(O)C(Cc2ccc(OCC3CCCN3c3ccccc3-c3sc4c(c3C(=O)O)CC(C)(C)CC4)cc2)NC(=O)OC2COC3(C)OCCC23)cc1 (stereo not shown) [Compound I-95]
Second: COc1ccc(S(=O)(=O)N(CC(C)C)CC(O)C(Cc2ccc(COC3CCCN3c3ccccc3-c3sc4c(c3C(=O)O)CC(C)(C)CC4)cc2)NC(=O)OC2COC3(C)OCCC23)cc1 (stereo not shown) [Compound I-103]
The IC50 of the first is 1.8-fold lower: 2.09 nM for the first, 3.75 nM for the second. The first is the more potent here.

`COc1ccc(S(=O)(=O)N(CC(C)C)CC(O)C(Cc2ccc(OC3CCCN(c4ccccc4-c4sc5c(c4C(=O)O)CC(C)(C)CC5)C3)cc2)NC(=O)OC2COC3(C)OCCC23)cc1` (stereo not shown) [Compound I-100] and `COc1ccc(S(=O)(=O)N(CC(C)C)CC(O)C(Cc2ccc(Oc3ccc(-c4sc5c(c4C(=O)O)CC(C)(C)CC5)cc3)cc2)NC(=O)OC2COC3(C)OCCC23)cc1` (stereo not shown) [Compound I-133] are within 1.5-fold of each other in IC50: 1.98 nM for the first, 1.53 nM for the second.

`CC(C)CN(CC(O)C(Cc1ccc(CCc2sc3c(c2C(=O)O)CC(C)(C)CC3)cc1)NC(=O)OC1COC2(C)OCCC12)S(=O)(=O)c1ccc2ncsc2c1` (stereo not shown) [Compound I-107] and `COc1ccc(S(=O)(=O)N(CC(C)C)CC(O)C(Cc2ccc(N(C)Cc3cccnc3-c3sc4c(c3C(=O)O)CC(C)(C)CC4)cc2)NC(=O)OC2COC3(C)OCCC23)cc1` (stereo not shown) [Compound I-129] are within 1.5-fold of each other in IC50: 2.37 nM for the first, 3.09 nM for the second.

`COc1ccc(S(=O)(=O)N(CC(C)C)CC(O)C(Cc2ccc(-c3sccc3C(=O)O)cc2)NC(=O)OC2COC3(C)OCCC23)cc1` (stereo not shown) [Compound I-108] and `COc1ccc(S(=O)(=O)N(CC(C)C)CC(O)C(Cc2ccc(-c3cc(C(=O)O)cs3)cc2)NC(=O)OC2COC3(C)OCCC23)cc1` (stereo not shown) [Compound I-109] are within 1.5-fold of each other in IC50: 1.12 nM for the first, 1.2 nM for the second.

`COc1ccc(S(=O)(=O)N(CC(C)C)CC(O)C(Cc2ccc(OCc3ncccc3-c3ccccc3-c3sc4c(c3C(=O)O)CC(C)(C)CC4)cc2)NC(=O)OC2COC3(C)OCCC23)cc1` (stereo not shown) [Compound I-110] and `COc1ccc(S(=O)(=O)N(CC(C)C)CC(O)C(Cc2ccc(OCc3ncsc3-c3ccc(-c4sc5c(c4C(=O)O)CC(C)(C)CC5)cc3)cc2)NC(=O)OC2COC3(C)OCCC23)cc1` (stereo not shown) [Compound I-111] are within 1.5-fold of each other in IC50: 1.67 nM for the first, 1.48 nM for the second.

Going from `COc1ccc(S(=O)(=O)N(CC(C)C)CC(O)C(Cc2ccc(Oc3ccc(-c4sc5c(c4C(=O)O)CC(C)(C)CC5)c(C(F)(F)F)c3)cc2)NC(=O)OC2COC3(C)OCCC23)cc1` (stereo not shown) [Compound I-135] to `COc1ccc(S(=O)(=O)N(CC(C)C)CC(O)C(Cc2ccc(OCc3ccc(C(=O)O)c(-c4ccc(F)cc4F)c3)cc2)NC(=O)OC2COC3(C)OCCC23)cc1` (stereo not shown) [Compound I-149], the IC50 falls from 6.8 nM to 1.27 nM (5.4-fold).

`COc1ccc(S(=O)(=O)N(CC2CCCC2)CC(O)C(Cc2ccc(OCc3ccccc3-n3nc(C(=O)O)c4c3CCC(C(F)(F)F)C4)cc2)NC(=O)OC2COC3(C)OCCC23)cc1` (stereo not shown) [Compound I-141] and `COc1ccc(S(=O)(=O)N(CC(C)C)CC(O)C(Cc2ccc(OCc3ccccc3-n3nc(C(=O)O)c4c3CCC(C(F)(F)F)C4)cc2)NC(=O)OC2COC3(C)OCCC23)cc1` (stereo not shown) [Compound I-142] are within 1.5-fold of each other in IC50: 1.74 nM for the first, 1.72 nM for the second.

First: CC(C)CN(CC(O)C(Cc1ccc(OCc2ccc(C(=O)O)cc2-c2ccc(F)cc2F)cc1)NC(=O)OC1COC2(C)OCCC12)S(=O)(=O)c1ccc2ncsc2c1 (stereo not shown) [Compound I-150]
Second: CC(C)CN(CC(O)C(Cc1ccc(OCc2cc(C(=O)O)ccc2-c2ccc(F)cc2F)cc1)NC(=O)OC1COC2(C)OCCC12)S(=O)(=O)c1ccc2ncsc2c1 (stereo not shown) [Compound I-151]
The IC50 of the first is 2-fold lower: 0.93 nM for the first, 1.88 nM for the second.
